Results taken from US20080090834A1, “SELECTIVE AZOLE PDE10A INHIBITOR COMPOUNDS” (Pfizer Inc, priority 2006, published 2008).
pIC50: −log10 of the molar value. Counter-ions that a name gives are not always drawn.

What was measured:
[1] = molecular target: T1, cloned rat PDE10A full-length enzyme (Rattus norvegicus, UniProt Q9QYJ6); assay: PDE10 enzyme inhibition, [3H]cAMP scintillation proximity assay; type: biochemical; details: rat PDE10A from Sf9 cells, 20 nM [3H]cAMP, SPA beads, 20 minute incubation at room temperature
T1 construct: cloned rat PDE10A full-length enzyme grown in transfected Sf9 insect cells; made in house; host or cells: Sf9 insect cells
T1 sequence (Q9QYJ6 1-794): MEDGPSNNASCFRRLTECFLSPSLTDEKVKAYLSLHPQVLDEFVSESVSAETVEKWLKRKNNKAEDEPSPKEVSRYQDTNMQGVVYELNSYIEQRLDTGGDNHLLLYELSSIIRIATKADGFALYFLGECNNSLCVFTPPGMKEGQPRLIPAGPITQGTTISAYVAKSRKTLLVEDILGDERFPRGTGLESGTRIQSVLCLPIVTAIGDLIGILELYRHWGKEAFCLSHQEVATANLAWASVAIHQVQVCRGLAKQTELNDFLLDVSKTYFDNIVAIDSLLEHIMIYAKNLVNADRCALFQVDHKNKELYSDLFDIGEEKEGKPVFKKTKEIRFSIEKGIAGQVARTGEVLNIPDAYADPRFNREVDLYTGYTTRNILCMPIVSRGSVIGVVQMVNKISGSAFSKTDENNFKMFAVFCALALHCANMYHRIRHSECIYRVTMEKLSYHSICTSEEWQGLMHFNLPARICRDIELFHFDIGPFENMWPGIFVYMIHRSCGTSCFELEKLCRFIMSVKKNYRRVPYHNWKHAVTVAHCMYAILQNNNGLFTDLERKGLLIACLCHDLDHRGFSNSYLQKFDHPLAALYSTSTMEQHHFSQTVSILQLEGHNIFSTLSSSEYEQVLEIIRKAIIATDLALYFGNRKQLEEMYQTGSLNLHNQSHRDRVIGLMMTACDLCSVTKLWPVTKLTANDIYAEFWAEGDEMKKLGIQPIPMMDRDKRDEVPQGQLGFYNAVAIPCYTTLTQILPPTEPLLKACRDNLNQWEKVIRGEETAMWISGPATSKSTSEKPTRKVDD
Outline: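 Full-length rat PDE10A from Sf9 cells hydrolysed 20 nM [3H]cAMP in 50 mM Tris, 8.3 mM MgCl2, pH 7.5, 2% DMSO, for 20 minutes at room temperature (<10% conversion). Yttrium silicate SPA beads with zinc sulphate stopped the reaction and captured [3H]AMP; 1 uM papaverine defined non-specific binding, vehicle defined total conversion.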

| Compound | pIC50 [1] | melting point [°C] |
| --- | --- | --- |
| Cc1ccc(-n2cc(-c3cscn3)nc2-c2ccc(-n3c(C(F)(F)F)nc4cccnc43)cc2)cn1 [Example 99, 2-(trifluoromethyl)-3-(4-(1-(6-methylpyridin-3-yl)-4-(thiazol-4-yl)-1H-imidazol-2-yl)phenyl)-3H-imidazo[4,5-b]pyridine] | 8.81 | 201 to 204 |
| c1ccc(-c2cn(-c3cccnc3)c(-c3ccc(-n4ccc5cccnc54)cc3)n2)nc1 [Example 7, 1-(4-(4-(pyridin-2-yl)-1-(pyridin-3-yl)-1H-imidazol-2-yl)phenyl)-1H-pyrrolo[2,3-b]pyridine] | 8.16 | 174 to 176 |
| c1cnc2c(c1)ccn2-c1ccc(-c2nc(-c3nccs3)cn2-c2cncnc2)cc1 [Example 26, 1-(4-(1-(pyrimidin-5-yl)-4-(thiazol-2-yl)-1H-imidazol-2-yl)phenyl)-1H-pyrrolo[2,3-b]pyridine] | 8.36 | – |
| CN(C)Cc1cn(-c2ccc(-c3nc(-c4ccccn4)cn3-c3cccnc3)cc2)c2ncccc12 [Example 18, N,N-dimethyl(1-(4-(4-(pyridin-2-yl)-1-(pyridin-3-yl)-1H-imidazol-2-yl)phenyl)-1H-pyrrolo[2,3-b]pyridin-3-yl)methanamine TFA salt] | 7.61 | – |
| Cc1ccc(-n2cc(-c3ccccn3)nc2-c2ccc(-n3cc(C)c4nccnc43)cc2)cn1 [Example 75] | 8.62 | – |
| Cc1nc(-c2cn(-c3cncnc3)c(-c3ccc(-n4ccc5cccnc54)cc3)n2)sc1C [Example 85] | 7.13 | – |
| c1ccc(-c2cn(-c3cccnc3)c(-c3ccc(-n4ncc5ccccc54)cc3)n2)nc1 [Example 35, 1-(4-(4-(pyridin-2-yl)-1-(pyridin-3-yl)-1H-imidazol-2-yl)phenyl)-1H-indazole] | 7.56 | – |
| COc1ccc(-n2cc(-c3ccccn3)nc2-c2ccc(-n3ccc4cccnc43)cc2)cn1 [Example 9, 1-(4-(1-(6-methoxypyridin-3-yl)-4-(pyridin-2-yl)-1H-imidazol-2-yl)phenyl)-1H-pyrrolo[2,3-b]pyridine] | 8.51 | – |
| Cc1cc(-c2nc(-c3cccs3)n(O)c2-c2cnccn2)ccc1-n1ccc2cccnc21 [Example 110, 1-(4-(1-hydroxy-5-(pyrazin-2-yl)-2-(thiophen-2-yl)-1H-imidazol-4-yl)-2-methylphenyl)-1H-pyrrolo[2,3-b]pyridine] | 7.44 | – |
| Cc1ccc(-n2cc(-c3cncs3)nc2-c2ccc(-n3c(C(F)(F)F)nc4cccnc43)cc2)cn1 [Example 117, 2-(trifluoromethyl)-3-(4-(1-(6-methylpyridin-3-yl)-4-(thiazol-5-yl)-1H-imidazol-2-yl)phenyl)-3H-imidazo[4,5-b]pyridine] | 9.21 | – |
| Cc1ccc(-n2cc(-c3nccs3)nc2-c2ccc(-n3c(=O)[nH]c4cccnc43)cc2)cn1 [Example 118, 3-(4-(1-(6-methylpyridin-3-yl)-4-(thiazol-2-yl)-1H-imidazol-2-yl)phenyl)-1H-imidazo[4,5-b]pyridin-2(3H)-one] | 9.13 | – |
| COc1nc2cccnc2n1-c1ccc(-c2nc(-c3nccs3)cn2-c2ccc(C)nc2)cc1 [Example 81, 2-methoxy-3-(4-(1-(6-methylpyridin-3-yl)-4-(thiazol-2-yl)-1H-imidazol-2-yl)phenyl)-3H-imidazo[4,5-b]pyridine] | 9.48 | 190 to 192 |
| Cc1ccc(-n2cc(-c3ccccn3)nc2-c2ccc(-n3ccc4cccnc43)c(C)c2)cn1 [Example 12, 1-(2-methyl-4-(1-(6-methylpyridin-3-yl)-4-(pyridin-2-yl)-1H-imidazol-2-yl)phenyl)-1H-pyrrolo[2,3-b]pyridine] | 7.50 | – |

Results, then the compound that gave them:

| pIC50 [1] | melting point [°C] | Compound |
| --- | --- | --- |
| 8.48 | 195 to 197 | c1cncc(-n2cc(-c3nccs3)nc2-c2ccc(-n3ccc4cccnc43)cc2)c1 [Example 23, 1-(4-(1-(pyridin-3-yl)-4-(thiazol-2-yl)-1H-imidazol-2-yl)phenyl)-1H-pyrrolo[2,3-b]pyridine] |
| 8.67 | – | FC(F)(F)c1ccc(-n2cc(-c3nccs3)nc2-c2ccc(-n3ccc4cccnc43)cc2)cn1 [Example 32, 1-(4-(1-(6-(trifluoromethyl)pyridin-3-yl)-4-(thiazol-2-yl)-1H-imidazol-2-yl)phenyl)-1H-pyrrolo[2,3-b]pyridine] |
| > 9.37 | – | COc1nc2cccnc2n1-c1ccc(-c2nc(-c3cccs3)cn2-c2ccc(C)nc2)cc1 [Example 93, 2-methoxy-3-(4-(1-(6-methylpyridin-3-yl)-4-(thiophen-2-yl)-1H-imidazol-2-yl)phenyl)-3H-imidazo[4,5-b]pyridine] |
| 8.19 | – | Cc1ccc(-n2cc(-c3ccccn3)nc2-c2ccc(-n3ncc4ccncc43)cc2)cn1 [Example 56, 1-(4-(1-(6-methylpyridin-3-yl)-4-(pyridin-2-yl)-1H-imidazol-2-yl)phenyl)-1H-pyrazolo[3,4-]pyridine] |
| 7.13 | – | c1ccc(-c2cn(-c3cncnc3)c(-c3ccc(-c4ccncc4)cc3)n2)nc1 [Example 73] |
| 8.04 | – | c1csc(-c2nc(-c3ccc(-n4ccc5cccnc54)cc3)c(-c3cnccn3)[nH]2)c1 [Example 105] |
